Experimental findings from ChEMBL document CHEMBL3797068, “eCF309: a potent, selective and cell-permeable mTOR inhibitor” (Medchemcomm, 2016) are described below.

Test [1] concerns MCF7. In words: Cytotoxicity against human MCF7 cells after 5 days by Presto blue reagent-based fluorescence analysis. Format: functional, cell-based. Particulars: for EC50: MCF7, 120 h.
In test [2] the target is Platelet-derived growth factor receptor alpha (Homo sapiens, UniProt P16234). Description: Inhibition of human PDGFRalpha using (poly [Glu, Tyr] 4:1) as substrate assessed as incorporation of 33P in substrate by [gamma33P] ATP-based kinase assay.
Test [3] concerns the target Tyrosine-protein kinase Blk (Homo sapiens, UniProt P51451). Description: Inhibition of human BLK using (poly [Glu, Tyr] 4:1) as substrate assessed as incorporation of 33P in substrate by [gamma33P] ATP-based kinase assay.
Test [4] addresses Mast/stem cell growth factor receptor Kit (Homo sapiens, UniProt P10721). In words: Inhibition of human KIT using (poly [Glu, Tyr] 4:1) as substrate assessed as incorporation of 33P in substrate by [gamma33P] ATP-based kinase assay.
Test [5] has as its system MCF7. In words: Cytotoxicity against human MCF7 cells assessed as cell viability at 1000 nM after 5 days by Presto blue reagent-based spectrofluorometric analysis. Format: functional. To be noted: MCF7, 120 h, read-out: Activity.
Test [6] concerns the target T1, Phosphatidylinositol 4,5-bisphosphate 3-kinase catalytic subunit alpha isoform (Homo sapiens, UniProt P42336). Description: Inhibition of PI3Kalpha (unknown origin) using (poly [Glu, Tyr] 4:1) as substrate assessed as incorporation of 33P in substrate by [gamma33P] ATP-based kinase assay.
Test [7] deals with Tyrosine-protein kinase Yes (Homo sapiens, UniProt P07947). In words: Inhibition of human YES using (poly [Glu, Tyr] 4:1) as substrate assessed as incorporation of 33P in substrate by [gamma33P] ATP-based kinase assay.
The target of test [8] is Proto-oncogene tyrosine-protein kinase Src (Homo sapiens, UniProt P12931). In words: Inhibition of human SRC using (poly [Glu, Tyr] 4:1) as substrate assessed as incorporation of 33P in substrate by [gamma33P] ATP-based kinase assay.
Test [9] concerns the target Proto-oncogene tyrosine-protein kinase receptor Ret (Homo sapiens, UniProt P07949). Description: Inhibition of human RET using (poly [Glu, Tyr] 4:1) as substrate assessed as incorporation of 33P in substrate by [gamma33P] ATP-based kinase assay.
Test [10] addresses Tyrosine-protein kinase Fyn (Homo sapiens, UniProt P06241). In words: Inhibition of human FYN using (poly [Glu, Tyr] 4:1) as substrate assessed as incorporation of 33P in substrate by [gamma33P] ATP-based kinase assay.
For test [11], the target named is Tyrosine-protein kinase ABL1 (Homo sapiens, UniProt P00519). Description: Inhibition of human ABL using (poly [Glu, Tyr] 4:1) as substrate assessed as incorporation of 33P in substrate by [gamma33P] ATP-based kinase assay.
Test [12] concerns the target T2, Phosphatidylinositol 4,5-bisphosphate 3-kinase catalytic subunit beta isoform (Homo sapiens, UniProt P42338). Description: Inhibition of PI3Kbeta (unknown origin) using (poly [Glu, Tyr] 4:1) as substrate assessed as incorporation of 33P in substrate by [gamma33P] ATP-based kinase assay.
Test [13] concerns the target T3, Serine/threonine-protein kinase mTOR (Homo sapiens, UniProt P42345). Description: Inhibition of human mTOR using (poly [Glu, Tyr] 4:1) as substrate assessed as incorporation of 33P in substrate by [gamma33P] ATP-based kinase assay.
Test [14] deals with T4, Phosphatidylinositol 4,5-bisphosphate 3-kinase catalytic subunit gamma isoform (Homo sapiens, UniProt P48736). Description: Inhibition of PI3Kgamma (unknown origin) using (poly [Glu, Tyr] 4:1) as substrate assessed as incorporation of 33P in substrate by [gamma33P] ATP-based kinase assay.
In test [15] the target is T5, Phosphatidylinositol 4,5-bisphosphate 3-kinase catalytic subunit delta isoform (Homo sapiens, UniProt O00329).
T5 sequence (O00329 whole entry): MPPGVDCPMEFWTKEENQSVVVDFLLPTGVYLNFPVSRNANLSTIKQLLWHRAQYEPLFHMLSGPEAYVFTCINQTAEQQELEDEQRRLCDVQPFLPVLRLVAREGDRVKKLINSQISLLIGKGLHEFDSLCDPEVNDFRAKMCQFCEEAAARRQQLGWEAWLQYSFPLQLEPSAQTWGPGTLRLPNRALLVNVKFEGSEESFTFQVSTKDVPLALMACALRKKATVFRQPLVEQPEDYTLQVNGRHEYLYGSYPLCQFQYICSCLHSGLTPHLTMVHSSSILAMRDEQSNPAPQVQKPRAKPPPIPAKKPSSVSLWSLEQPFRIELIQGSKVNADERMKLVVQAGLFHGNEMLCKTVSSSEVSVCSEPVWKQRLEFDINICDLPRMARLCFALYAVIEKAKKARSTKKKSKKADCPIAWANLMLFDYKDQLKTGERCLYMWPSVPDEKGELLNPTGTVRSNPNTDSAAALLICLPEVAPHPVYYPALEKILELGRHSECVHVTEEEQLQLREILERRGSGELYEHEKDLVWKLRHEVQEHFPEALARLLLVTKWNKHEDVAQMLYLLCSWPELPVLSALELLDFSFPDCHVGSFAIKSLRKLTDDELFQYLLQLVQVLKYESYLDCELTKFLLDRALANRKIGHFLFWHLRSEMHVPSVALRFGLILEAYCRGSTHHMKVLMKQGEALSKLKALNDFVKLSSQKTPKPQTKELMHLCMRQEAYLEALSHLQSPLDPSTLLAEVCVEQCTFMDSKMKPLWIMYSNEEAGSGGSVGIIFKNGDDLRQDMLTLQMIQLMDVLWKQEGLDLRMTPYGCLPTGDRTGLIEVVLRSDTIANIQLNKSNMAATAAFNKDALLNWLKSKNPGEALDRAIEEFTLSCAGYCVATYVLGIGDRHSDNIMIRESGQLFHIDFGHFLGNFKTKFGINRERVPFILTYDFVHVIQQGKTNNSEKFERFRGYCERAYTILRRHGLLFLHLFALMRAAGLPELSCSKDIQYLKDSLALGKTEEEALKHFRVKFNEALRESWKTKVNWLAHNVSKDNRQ
In words: Inhibition of PI3Kdelta (unknown origin) using (poly [Glu, Tyr] 4:1) as substrate assessed as incorporation of 33P in substrate by [gamma33P] ATP-based kinase assay.

Test [16] addresses T1, Phosphatidylinositol 4,5-bisphosphate 3-kinase catalytic subunit alpha isoform. Description: Inhibition of PI3Kalpha (unknown origin) using PIP2 as substrate by HTRF assay.
The target in test [17] is T4, Phosphatidylinositol 4,5-bisphosphate 3-kinase catalytic subunit gamma isoform. Description: Inhibition of PI3Kgamma (unknown origin) using PIP2 as substrate by HTRF assay.
Test [18] deals with MDA-MB-231. Description: Cytotoxicity against human MDA-MB-231 cells after 5 days by Presto blue reagent-based spectrofluorometric analysis. Format: functional, cell-based. Particulars: MDA-MB-231, 120 h.
The target of test [19] is Epithelial discoidin domain-containing receptor 1 (Homo sapiens, UniProt Q08345). Description: Inhibition of human DDR1 using (poly [Glu, Tyr] 4:1) as substrate assessed as incorporation of 33P in substrate by [gamma33P] ATP-based kinase assay.
A short description of test [20]: Cell cycle arrest in human PC3 cells assessed as increase in G0/G1 population after 24 hrs by Hoechst 33342 staining-based fluorescence analysis. Format: functional. Particulars: PC-3.
The target in test [21] is DNA-dependent protein kinase catalytic subunit (Homo sapiens, UniProt P78527). Description: Inhibition of human DNA-PK using (poly [Glu, Tyr] 4:1) as substrate assessed as incorporation of 33P in substrate by [gamma33P] ATP-based kinase assay.
Test [22] concerns the target T3, Serine/threonine-protein kinase mTOR. Description: Inhibition of recombinant human mTOR by LanthaScreen Kinase assay. Background: Time-resolved FRET reads energy transfer from a long-lived donor to a nearby acceptor.
Test [23] has as its target T2, Phosphatidylinositol 4,5-bisphosphate 3-kinase catalytic subunit beta isoform. In words: Inhibition of PI3Kbeta (unknown origin) using PIP2 as substrate by HTRF assay.
Test [24] concerns the target T5, Phosphatidylinositol 4,5-bisphosphate 3-kinase catalytic subunit delta isoform. In words: Inhibition of PI3Kdelta (unknown origin) using PIP2 as substrate by HTRF assay.
Test [25] can be described thus: Cytotoxicity against human PC3 cells after 5 days by Presto blue reagent-based spectrofluorometric analysis. It counts as functional, cell-based. To be noted: PC-3, 120 h.
Test [26] deals with MCF7. In words: Cell cycle arrest in human MCF7 cells assessed as increase in G0/G1 population after 24 hrs by Hoechst 33342 staining-based fluorescence analysis. Format: functional.
The test system of test [27] is MDA-MB-231. Description: Cell cycle arrest in human MDA-MB-231 cells assessed as increase in G0/G1 population after 24 hrs by Hoechst 33342 staining-based fluorescence analysis. Format: functional.
Test [28] relates to MCF7. Description: Cytotoxicity against human MCF7 cells at 0.3 to 1000 nM after 5 days by Presto blue reagent-based spectrofluorometric analysis. Format: functional, cell-based.

Each structure is given as a SMILES string. Activity calls are given as the source filed them. The calls are words filed in the database; no cut-off is given here. A value given as a limit tells only on which side of the number the result lay.

T2 sequence (P42338 whole entry, canonical isoform): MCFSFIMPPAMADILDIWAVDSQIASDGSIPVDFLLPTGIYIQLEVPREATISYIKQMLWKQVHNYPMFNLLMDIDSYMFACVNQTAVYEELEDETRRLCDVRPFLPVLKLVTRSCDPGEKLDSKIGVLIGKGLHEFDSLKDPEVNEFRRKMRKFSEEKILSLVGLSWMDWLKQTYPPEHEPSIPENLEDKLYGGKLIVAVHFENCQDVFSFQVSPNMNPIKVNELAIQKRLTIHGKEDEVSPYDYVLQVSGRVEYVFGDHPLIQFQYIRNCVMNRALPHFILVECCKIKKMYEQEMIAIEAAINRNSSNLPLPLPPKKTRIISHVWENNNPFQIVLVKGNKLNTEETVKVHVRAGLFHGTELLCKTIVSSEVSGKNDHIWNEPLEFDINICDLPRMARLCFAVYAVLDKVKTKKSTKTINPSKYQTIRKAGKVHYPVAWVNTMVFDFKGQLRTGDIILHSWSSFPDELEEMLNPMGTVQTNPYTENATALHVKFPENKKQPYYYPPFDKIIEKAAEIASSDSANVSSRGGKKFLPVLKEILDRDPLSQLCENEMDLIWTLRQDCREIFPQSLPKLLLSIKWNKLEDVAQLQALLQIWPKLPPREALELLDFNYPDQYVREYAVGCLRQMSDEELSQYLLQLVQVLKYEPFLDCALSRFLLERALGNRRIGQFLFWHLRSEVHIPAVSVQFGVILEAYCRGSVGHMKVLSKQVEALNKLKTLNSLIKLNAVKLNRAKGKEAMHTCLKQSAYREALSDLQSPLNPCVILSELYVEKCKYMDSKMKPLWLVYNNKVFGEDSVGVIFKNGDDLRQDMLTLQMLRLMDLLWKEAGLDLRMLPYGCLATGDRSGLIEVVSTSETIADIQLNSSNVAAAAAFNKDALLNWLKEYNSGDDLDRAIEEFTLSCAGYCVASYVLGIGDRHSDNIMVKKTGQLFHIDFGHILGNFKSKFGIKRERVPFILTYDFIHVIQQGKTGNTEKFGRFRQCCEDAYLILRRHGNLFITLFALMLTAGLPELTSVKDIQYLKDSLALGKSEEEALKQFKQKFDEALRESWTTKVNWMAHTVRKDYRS
Chain of Platelet-derived growth factor receptor alpha (P16234 whole entry): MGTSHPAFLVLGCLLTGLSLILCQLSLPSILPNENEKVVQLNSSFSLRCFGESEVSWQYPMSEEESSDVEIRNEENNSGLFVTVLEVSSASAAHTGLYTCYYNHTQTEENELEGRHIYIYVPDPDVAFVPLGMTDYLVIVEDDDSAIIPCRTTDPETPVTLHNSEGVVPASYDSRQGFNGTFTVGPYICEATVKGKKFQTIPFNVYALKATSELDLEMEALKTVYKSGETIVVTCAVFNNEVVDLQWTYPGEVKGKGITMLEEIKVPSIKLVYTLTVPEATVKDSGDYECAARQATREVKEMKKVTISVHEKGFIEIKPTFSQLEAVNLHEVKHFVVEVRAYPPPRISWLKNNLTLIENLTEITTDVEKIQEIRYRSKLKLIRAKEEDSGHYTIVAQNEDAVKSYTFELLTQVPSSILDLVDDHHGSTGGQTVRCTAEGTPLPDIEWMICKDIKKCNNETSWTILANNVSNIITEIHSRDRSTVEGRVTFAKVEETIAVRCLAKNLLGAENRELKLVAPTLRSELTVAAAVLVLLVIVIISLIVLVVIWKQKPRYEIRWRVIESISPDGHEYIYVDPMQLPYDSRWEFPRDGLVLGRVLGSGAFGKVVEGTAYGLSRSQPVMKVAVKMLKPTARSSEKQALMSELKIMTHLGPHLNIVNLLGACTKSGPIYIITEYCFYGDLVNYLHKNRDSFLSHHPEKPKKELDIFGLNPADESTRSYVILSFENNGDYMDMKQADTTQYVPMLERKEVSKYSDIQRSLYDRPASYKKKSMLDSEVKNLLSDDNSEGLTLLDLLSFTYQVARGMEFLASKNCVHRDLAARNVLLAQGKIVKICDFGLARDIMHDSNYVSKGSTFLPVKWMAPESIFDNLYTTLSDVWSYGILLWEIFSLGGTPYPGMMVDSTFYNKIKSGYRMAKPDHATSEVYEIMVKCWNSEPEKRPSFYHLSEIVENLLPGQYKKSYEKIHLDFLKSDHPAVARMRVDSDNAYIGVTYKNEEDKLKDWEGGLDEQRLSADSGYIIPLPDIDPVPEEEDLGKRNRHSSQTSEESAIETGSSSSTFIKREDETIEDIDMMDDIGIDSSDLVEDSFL
Chain of Mast/stem cell growth factor receptor Kit (P10721 whole entry): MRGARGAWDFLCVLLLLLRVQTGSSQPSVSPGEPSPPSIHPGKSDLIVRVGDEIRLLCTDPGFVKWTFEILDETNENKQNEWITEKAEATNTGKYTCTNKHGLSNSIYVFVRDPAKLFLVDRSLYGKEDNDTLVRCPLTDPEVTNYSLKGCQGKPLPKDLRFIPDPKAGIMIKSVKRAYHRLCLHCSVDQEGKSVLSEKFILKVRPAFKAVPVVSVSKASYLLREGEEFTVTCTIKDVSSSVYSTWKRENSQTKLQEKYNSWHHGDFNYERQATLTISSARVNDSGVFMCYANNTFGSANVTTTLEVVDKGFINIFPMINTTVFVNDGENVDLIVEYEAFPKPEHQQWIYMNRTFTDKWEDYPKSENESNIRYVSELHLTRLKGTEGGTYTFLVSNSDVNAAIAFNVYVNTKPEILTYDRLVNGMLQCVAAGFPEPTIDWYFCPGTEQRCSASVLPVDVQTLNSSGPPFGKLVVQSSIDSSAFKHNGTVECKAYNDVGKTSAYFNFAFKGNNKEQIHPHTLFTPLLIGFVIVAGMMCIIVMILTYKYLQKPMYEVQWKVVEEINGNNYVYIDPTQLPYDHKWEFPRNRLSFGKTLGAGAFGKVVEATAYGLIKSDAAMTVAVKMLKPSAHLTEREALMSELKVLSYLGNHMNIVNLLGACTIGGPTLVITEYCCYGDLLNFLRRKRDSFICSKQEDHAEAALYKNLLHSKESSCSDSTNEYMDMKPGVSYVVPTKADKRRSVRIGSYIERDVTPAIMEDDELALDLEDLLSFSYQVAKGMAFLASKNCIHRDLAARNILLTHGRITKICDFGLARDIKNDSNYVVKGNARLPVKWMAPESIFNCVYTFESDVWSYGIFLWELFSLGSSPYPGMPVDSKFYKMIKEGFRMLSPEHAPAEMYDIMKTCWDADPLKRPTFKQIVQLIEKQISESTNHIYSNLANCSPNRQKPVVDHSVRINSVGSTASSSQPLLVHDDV
Chain of Tyrosine-protein kinase Blk (P51451 whole entry): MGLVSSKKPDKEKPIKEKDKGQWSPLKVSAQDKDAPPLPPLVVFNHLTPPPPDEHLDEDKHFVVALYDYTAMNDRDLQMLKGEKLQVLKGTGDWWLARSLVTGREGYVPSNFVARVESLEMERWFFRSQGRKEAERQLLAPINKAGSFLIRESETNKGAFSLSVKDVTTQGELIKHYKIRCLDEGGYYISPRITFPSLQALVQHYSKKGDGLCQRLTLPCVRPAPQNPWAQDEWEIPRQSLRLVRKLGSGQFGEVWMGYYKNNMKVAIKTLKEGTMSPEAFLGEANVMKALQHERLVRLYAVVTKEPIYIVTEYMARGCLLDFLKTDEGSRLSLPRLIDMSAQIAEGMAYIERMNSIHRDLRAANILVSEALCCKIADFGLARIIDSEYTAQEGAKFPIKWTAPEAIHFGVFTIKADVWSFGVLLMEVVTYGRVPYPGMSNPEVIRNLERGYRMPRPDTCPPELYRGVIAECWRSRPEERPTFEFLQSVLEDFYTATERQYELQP
T4 sequence (P48736 whole entry, canonical isoform): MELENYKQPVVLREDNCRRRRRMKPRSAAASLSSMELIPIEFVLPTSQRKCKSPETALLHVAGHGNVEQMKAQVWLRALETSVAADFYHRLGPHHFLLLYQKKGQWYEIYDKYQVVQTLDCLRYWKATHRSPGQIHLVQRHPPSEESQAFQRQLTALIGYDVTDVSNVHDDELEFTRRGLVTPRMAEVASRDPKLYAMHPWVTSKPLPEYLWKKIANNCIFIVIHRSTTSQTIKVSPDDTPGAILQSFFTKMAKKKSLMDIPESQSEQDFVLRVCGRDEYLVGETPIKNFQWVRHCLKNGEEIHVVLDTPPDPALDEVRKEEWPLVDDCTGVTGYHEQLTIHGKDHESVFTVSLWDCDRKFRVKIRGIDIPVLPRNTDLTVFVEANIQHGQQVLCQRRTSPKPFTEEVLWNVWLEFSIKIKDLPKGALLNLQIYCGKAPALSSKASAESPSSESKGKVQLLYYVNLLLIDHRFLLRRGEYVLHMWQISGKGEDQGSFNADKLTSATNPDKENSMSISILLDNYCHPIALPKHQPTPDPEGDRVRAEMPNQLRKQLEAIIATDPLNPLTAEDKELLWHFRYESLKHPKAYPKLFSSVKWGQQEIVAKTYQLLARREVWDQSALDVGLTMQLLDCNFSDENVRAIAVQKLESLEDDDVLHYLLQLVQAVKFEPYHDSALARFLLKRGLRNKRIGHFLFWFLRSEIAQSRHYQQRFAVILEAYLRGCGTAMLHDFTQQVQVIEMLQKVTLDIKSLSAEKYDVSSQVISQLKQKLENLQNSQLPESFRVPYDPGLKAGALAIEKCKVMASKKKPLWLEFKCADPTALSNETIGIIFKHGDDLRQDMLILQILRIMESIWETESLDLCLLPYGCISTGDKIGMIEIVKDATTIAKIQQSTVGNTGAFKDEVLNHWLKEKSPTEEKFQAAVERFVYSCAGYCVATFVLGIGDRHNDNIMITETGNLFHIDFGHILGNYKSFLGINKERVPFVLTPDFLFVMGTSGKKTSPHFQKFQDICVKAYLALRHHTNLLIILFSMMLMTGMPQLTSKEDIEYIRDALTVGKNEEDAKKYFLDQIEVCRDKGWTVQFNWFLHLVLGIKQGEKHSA

Regarding `COC(Cn1nc(-c2cnc3[nH]ccc3c2)c2c(N)ncnc21)OC`, in test [1], the result was Active.
As usually defined, the IC50 is the midpoint of a concentration-inhibition curve. `CCOC(Cn1nc(-c2cnc3[nH]ccc3c2)c2c(N)ncnc21)OCC`: the 50% inhibitory concentration (IC50) in test [2], in test [3] and in test [4] was over 100000 nM each time. Further, the outcome in test [1] was Active.
On to `CNC(=O)c1cccc(-c2ccc3c(N4CCOC[C@@H]4C)nc(N4CCOC[C@@H]4C)nc3n2)c1`, for which the result in test [1] was Active.
In general, EC50 refers to the midpoint of the concentration-response curve. Consider `CO[C@H]1C[C@@H]2CC[C@@H](C)[C@@](O)(O2)C(=O)C(=O)N2CCCC[C@H]2C(=O)O[C@H]([C@H](C)C[C@@H]2CC[C@@H](OCCO)[C@H](OC)C2)CC(=O)[C@H](C)/C=C(\C)[C@@H](O)[C@@H](OC)C(=O)[C@H](C)C[C@H](C)/C=C/C=C/C=C/1C` [EVEROLIMUS], for which the viability at 1 µM in test [5] was found to be 30%. Further, the concentration giving a half-maximal response (EC50) in [1] was under 1 nM.
In the case of `Nc1nc2cc(-c3nn(CC4OCCO4)c4ncnc(N)c34)ccc2o1`, the half-inhibitory concentration (IC50) in test [6] was 115 nM; in [7], over 100000 nM; in [8], over 100000 nM; in test [2], over 100000 nM; in test [3] it was over 100000 nM; in [9], over 100000 nM. Further, the IC50 in test [10] was over 100000 nM; in test [11] it was 8630 nM; in [12], 3850 nM; in [13] it was 59 nM; in test [4], over 100000 nM; in test [14], 302 nM. Moreover, the concentration for half-maximal inhibition (IC50) in test [15] stood at 271 nM. Moreover, in test [1], it took 7.6 nM to reach a half-maximal effect (EC50).
For `Nc1nc2cc(-c3nn(CC4CCCC4)c4ncnc(N)c34)ccc2o1`, the half-inhibitory concentration (IC50) in test [16] worked out at 3.5 nM; in test [17], 5 nM; in [19], 4.7 nM; in test [21], 3 nM; in test [22] it was 1.8 nM; in test [23], 89 nM. Besides, the concentration for half-maximal inhibition (IC50) in test [24] came out at 7.3 nM. For the same compound, the EC50 was 12 nM in test [18], 4 nM in [25] and 1.7 nM in test [1]. The result in [20], in test [26] and in test [27] was Active.
In the case of `Nc1ncnc2c1c(-c1cnc3[nH]ccc3c1)nn2CC1OCCO1`, the outcome in test [1] was Active.
As for `Nc1nc2cc(-c3nn(CC=O)c4ncnc(N)c34)ccc2o1`, the result in [28] was inactive.
On to `Nc1nc2cc(-c3nn(CC4CCCO4)c4ncnc(N)c34)ccc2o1` (stereo unspecified), for which the IC50 in test [16] came out at 44 nM; in test [17], 77 nM; in test [19], 137 nM; in test [21], 48 nM; in test [22], 5 nM; in test [23], 1120 nM. The half-maximal inhibitory concentration (IC50) in test [24] stood at 149 nM. The EC50 was 113 nM in [18], 51 nM in test [25] and 8 nM in test [1]. Besides, the result in [20], in test [26] and in test [27] was Active.
On to `CO[C@H]1C[C@@H]2CC[C@@H](C)[C@@](O)(O2)C(=O)C(=O)N2CCCC[C@H]2C(=O)O[C@H]([C@H](C)C[C@@H]2CC[C@@H](O)[C@H](OC)C2)CC(=O)[C@H](C)/C=C(\C)[C@@H](O)[C@@H](OC)C(=O)[C@H](C)C[C@H](C)/C=C/C=C/C=C/1C` [SIROLIMUS], for which the viability at 1 µM in test [5] came to 30%. The compound also had an EC50 in [1] of under 1 nM.
In the case of `COC(Cn1nc(-c2ccc3oc(N)nc3c2)c2c(N)ncnc21)OC`, the IC50 was 300 nM in [6]; over 100000 nM in test [7]; over 100000 nM in [8]; over 100000 nM in test [2]; over 100000 nM in test [3]; over 100000 nM in test [9]. The IC50 in [10] was over 100000 nM; in [11], 9920 nM; in test [12], 5600 nM; in [13], 25 nM; in test [4], over 100000 nM; in test [14], 99 nM. In [15], the IC50 stood at 505 nM. The compound further returned an EC50 in test [1] of 6.7 nM.
